Measured values taken from patent US12660819B2, “Herbicidal derivatives” (SYNGENTA CROP PROTECTION AG, priority 2020, dated 2026).

How the values were obtained:
Format in all cases: in vivo
[1] = test system: Amaranthus retoflexus (AMARE); test: Post-emergence Test (glasshouse, percentage damage to the plant); details: post-emergence spray, 1000 g/ha unless otherwise stated, evaluated after 13 days
Outline: (§1)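 Scored 13 days after spraying as percentage plant damage in five bands (5=81–100%, 4=61–80%, 3=41–60%, 2=21–40%, 1=0–20%). Spray at 1000 g/ha unless stated, in acetone/water 50:50 plus 0.5% Tween 20, onto sown glasshouse pots (24/16 °C, 14 h light, 65% humidity).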

[2] = test system: Echinochloa crus-galli (ECHCG); test: as above; details: post-emergence spray, 1000 g/ha unless otherwise stated, evaluated after 13 days
Outline: as §1

[3] = test system: Ipomoea hederacea (IPOHE); test: as above; details: post-emergence spray, 1000 g/ha unless otherwise stated, evaluated after 13 days
Outline: (§2)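 Spray treatment of sown glasshouse pots at 1000 g/ha (default rate), vehicle acetone/water 50:50 plus 0.5% Tween 20. Read-out: percentage damage after 13 days, converted to a score where 5 denotes 81-100% and 1 denotes 0-20%.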

Lolium perenne (LOLPE) [4] = test: as above; details: post-emergence spray, 1000 g/ha unless otherwise stated, evaluated after 13 days
Outline: as §1

Setaria faberi (SETFA) [5] = test: as above; details: post-emergence spray, 1000 g/ha unless otherwise stated, evaluated after 13 days
Outline: as §2

Solanum nigrum (SOLNI) [6] = test: as above; details: post-emergence spray, 1000 g/ha unless otherwise stated, evaluated after 13 days
Outline: as §1

[7] = test system: Amaranthus retoflexus (AMARE); test: Pre-emergence Test (glasshouse, percentage damage to the plant); details: 1000 g/ha unless otherwise stated, five-point scale
Solanum nigrum (SOLNI) [8] = test: as above; details: 1000 g/ha unless otherwise stated, five-point scale
Setaria faberi (SETFA) [9] = test: as above; details: 1000 g/ha unless otherwise stated, five-point scale
Lolium perenne (LOLPE) [10] = test: as above; details: 1000 g/ha unless otherwise stated, five-point scale
[11] = test system: Echinochloa crus-galli (ECHCG); test: as above; details: 1000 g/ha unless otherwise stated, five-point scale
[12] = test system: Ipomoea hederacea (IPOHE); test: as above; details: 1000 g/ha unless otherwise stated, five-point scale

CCn1c(C)c(-c2cnn(C)c2)c(=O)c(C(=O)O)c1-c1ccc(Cl)c(Cl)c1 [Compound 1, 2-(3,4-dichlorophenyl)-1-ethyl-6-methyl-5-(1-methylpyrazol-4-yl)-4-oxo-pyridine-3-carboxylic acid]
1 (1=0-20%): percentage damage to the plant, AMARE [7]
5 (5=81-100%): Post-emergence Test AMARE, percentage damage to the plant (five-point scale) [1] | Post-emergence Test ECHCG, percentage damage to the plant (five-point scale) [2] | Post-emergence Test SETFA, percentage damage to the plant (five-point scale) (Setaria faberi (SETFA) [5]) | Post-emergence Test SOLNI, percentage damage to the plant (five-point scale) (Solanum nigrum (SOLNI) [6]) | percentage damage to the plant, SOLNI (Solanum nigrum (SOLNI) [8]) | percentage damage to the plant, SETFA (Setaria faberi (SETFA) [9]) | percentage damage to the plant, ECHCG [11]
3 (3=41-60%): Post-emergence Test LOLPE, percentage damage to the plant (five-point scale) (Lolium perenne (LOLPE) [4])
4 (4=61-80%): Post-emergence Test IPOHE, percentage damage to the plant (five-point scale) [3] | percentage damage to the plant, LOLPE (Lolium perenne (LOLPE) [10]) | percentage damage to the plant, IPOHE [12]

CCn1c(C)c(-c2ccccc2)c(=O)c(C(=O)O)c1-c1ccc(Cl)c(Cl)c1 [Compound 24, 2-(3,4-dichlorophenyl)-1-ethyl-6-methyl-4-oxo-5-phenyl-pyridine-3-carboxylic acid]
5 (5=81-100%): Post-emergence Test SOLNI, percentage damage to the plant (five-point scale) (Solanum nigrum (SOLNI) [6]) | percentage damage to the plant, SOLNI (Solanum nigrum (SOLNI) [8])
4 (4=61-80%): Post-emergence Test AMARE, percentage damage to the plant (five-point scale) [1] | Post-emergence Test IPOHE, percentage damage to the plant (five-point scale) [3] | Post-emergence Test LOLPE, percentage damage to the plant (five-point scale) (Lolium perenne (LOLPE) [4]) | Post-emergence Test SETFA, percentage damage to the plant (five-point scale) (Setaria faberi (SETFA) [5]) | percentage damage to the plant, IPOHE [12]
3 (3=41-60%): Post-emergence Test ECHCG, percentage damage to the plant (five-point scale) [2]
2 (2=21-40%): percentage damage to the plant, LOLPE (Lolium perenne (LOLPE) [10]) | percentage damage to the plant, ECHCG [11]
1 (1=0-20%): percentage damage to the plant, AMARE [7] | percentage damage to the plant, SETFA (Setaria faberi (SETFA) [9])

CCn1c(C)c(-c2ncco2)c(=O)c(C(=O)OC)c1-c1ccc(Cl)c(Cl)c1 [Compound 38, methyl 2-(3,4-dichlorophenyl)-1-ethyl-6-methyl-5-oxazol-2-yl-4-oxo-pyridine-3-carboxylate]
1 (1=0-20%): Post-emergence Test AMARE, percentage damage to the plant (five-point scale) [1] | Post-emergence Test ECHCG, percentage damage to the plant (five-point scale) [2] | Post-emergence Test IPOHE, percentage damage to the plant (five-point scale) [3] | Post-emergence Test LOLPE, percentage damage to the plant (five-point scale) (Lolium perenne (LOLPE) [4]) | Post-emergence Test SETFA, percentage damage to the plant (five-point scale) (Setaria faberi (SETFA) [5]) | Post-emergence Test SOLNI, percentage damage to the plant (five-point scale) (Solanum nigrum (SOLNI) [6]) | percentage damage to the plant, AMARE [7] | percentage damage to the plant, SOLNI (Solanum nigrum (SOLNI) [8]) | percentage damage to the plant, SETFA (Setaria faberi (SETFA) [9]) | percentage damage to the plant, LOLPE (Lolium perenne (LOLPE) [10]) | percentage damage to the plant, ECHCG [11] | percentage damage to the plant, IPOHE [12]

CCn1c(C)c(-c2cscc2C)c(=O)c(C(=O)O)c1-c1ccc(Cl)c(Cl)c1 [Compound 20, 2-(3,4-dichlorophenyl)-1-ethyl-6-methyl-5-(4-methyl-3-thienyl)-4-oxo-pyridine-3-carboxylic acid]
4 (4=61-80%): Post-emergence Test AMARE, percentage damage to the plant (five-point scale) [1] | Post-emergence Test SETFA, percentage damage to the plant (five-point scale) (Setaria faberi (SETFA) [5]) | percentage damage to the plant, SETFA (Setaria faberi (SETFA) [9])
2 (2=21-40%): Post-emergence Test IPOHE, percentage damage to the plant (five-point scale) [3] | Post-emergence Test LOLPE, percentage damage to the plant (five-point scale) (Lolium perenne (LOLPE) [4]) | percentage damage to the plant, SOLNI (Solanum nigrum (SOLNI) [8]) | percentage damage to the plant, ECHCG [11]
3 (3=41-60%): Post-emergence Test ECHCG, percentage damage to the plant (five-point scale) [2] | Post-emergence Test SOLNI, percentage damage to the plant (five-point scale) (Solanum nigrum (SOLNI) [6]) | percentage damage to the plant, LOLPE (Lolium perenne (LOLPE) [10])
1 (1=0-20%): percentage damage to the plant, AMARE [7] | percentage damage to the plant, IPOHE [12]

CCn1c(C)c(-c2ccc(Cl)c(Cl)c2)c(=O)c(C(=O)O)c1-c1ccc(Cl)c(Cl)c1 [Compound 29, 2,5-bis(3,4-dichlorophenyl)-1-ethyl-6-methyl-4-oxo-pyridine-3-carboxylic acid]
2 (2=21-40%): Post-emergence Test IPOHE, percentage damage to the plant (five-point scale) [3] | Post-emergence Test LOLPE, percentage damage to the plant (five-point scale) (Lolium perenne (LOLPE) [4])
3 (3=41-60%): Post-emergence Test SETFA, percentage damage to the plant (five-point scale) (Setaria faberi (SETFA) [5]) | Post-emergence Test SOLNI, percentage damage to the plant (five-point scale) (Solanum nigrum (SOLNI) [6]) | percentage damage to the plant, AMARE [7] | percentage damage to the plant, SETFA (Setaria faberi (SETFA) [9])
5 (5=81-100%): Post-emergence Test AMARE, percentage damage to the plant (five-point scale) [1]
1 (1=0-20%): Post-emergence Test ECHCG, percentage damage to the plant (five-point scale) [2] | percentage damage to the plant, SOLNI (Solanum nigrum (SOLNI) [8]) | percentage damage to the plant, LOLPE (Lolium perenne (LOLPE) [10]) | percentage damage to the plant, ECHCG [11] | percentage damage to the plant, IPOHE [12]

CCn1c(C)c(-c2cccnc2)c(=O)c(C(=O)O)c1-c1ccc(Cl)c(Cl)c1 [Compound 19, 2-(3,4-dichlorophenyl)-1-ethyl-6-methyl-4-oxo-5-(3-pyridyl)pyridine-3-carboxylic acid]
4 (4=61-80%): Post-emergence Test AMARE, percentage damage to the plant (five-point scale) [1] | Post-emergence Test IPOHE, percentage damage to the plant (five-point scale) [3] | Post-emergence Test SETFA, percentage damage to the plant (five-point scale) (Setaria faberi (SETFA) [5])
3 (3=41-60%): Post-emergence Test LOLPE, percentage damage to the plant (five-point scale) (Lolium perenne (LOLPE) [4])
1 (1=0-20%): percentage damage to the plant, AMARE [7] | percentage damage to the plant, SOLNI (Solanum nigrum (SOLNI) [8]) | percentage damage to the plant, SETFA (Setaria faberi (SETFA) [9]) | percentage damage to the plant, LOLPE (Lolium perenne (LOLPE) [10]) | percentage damage to the plant, ECHCG [11] | percentage damage to the plant, IPOHE [12]
5 (5=81-100%): Post-emergence Test ECHCG, percentage damage to the plant (five-point scale) [2] | Post-emergence Test SOLNI, percentage damage to the plant (five-point scale) (Solanum nigrum (SOLNI) [6])

CCn1c(C)c(-c2ccc(Cl)c(F)c2)c(=O)c(C(=O)O)c1-c1ccc(Cl)c(Cl)c1 [Compound 9, 5-(4-chloro-3-fluoro-phenyl)-2-(3,4-dichlorophenyl)-1-ethyl-6-methyl-4-oxo-pyridine-3-carboxylic acid]
3 (3=41-60%): Post-emergence Test IPOHE, percentage damage to the plant (five-point scale) [3] | Post-emergence Test SOLNI, percentage damage to the plant (five-point scale) (Solanum nigrum (SOLNI) [6]) | percentage damage to the plant, SOLNI (Solanum nigrum (SOLNI) [8])
4 (4=61-80%): percentage damage to the plant, SETFA (Setaria faberi (SETFA) [9])
1 (1=0-20%): Post-emergence Test LOLPE, percentage damage to the plant (five-point scale) (Lolium perenne (LOLPE) [4]) | percentage damage to the plant, LOLPE (Lolium perenne (LOLPE) [10]) | percentage damage to the plant, IPOHE [12]
5 (5=81-100%): Post-emergence Test AMARE, percentage damage to the plant (five-point scale) [1] | Post-emergence Test ECHCG, percentage damage to the plant (five-point scale) [2] | Post-emergence Test SETFA, percentage damage to the plant (five-point scale) (Setaria faberi (SETFA) [5]) | percentage damage to the plant, AMARE [7] | percentage damage to the plant, ECHCG [11]

CCn1c(C)c(-c2ccc(S(C)(=O)=O)cc2)c(=O)c(C(=O)O)c1-c1ccc(Cl)c(Cl)c1 [Compound 32, 2-(3,4-dichlorophenyl)-1-ethyl-6-methyl-5-(4-methylsulfonylphenyl)-4-oxo-pyridine-3-carboxylic acid]
4 (4=61-80%): Post-emergence Test ECHCG, percentage damage to the plant (five-point scale) [2] | percentage damage to the plant, SETFA (Setaria faberi (SETFA) [9]) | percentage damage to the plant, ECHCG [11]
1 (1=0-20%): Post-emergence Test AMARE, percentage damage to the plant (five-point scale) [1] | Post-emergence Test IPOHE, percentage damage to the plant (five-point scale) [3] | Post-emergence Test LOLPE, percentage damage to the plant (five-point scale) (Lolium perenne (LOLPE) [4]) | percentage damage to the plant, AMARE [7] | percentage damage to the plant, SOLNI (Solanum nigrum (SOLNI) [8]) | percentage damage to the plant, LOLPE (Lolium perenne (LOLPE) [10]) | percentage damage to the plant, IPOHE [12]
3 (3=41-60%): Post-emergence Test SETFA, percentage damage to the plant (five-point scale) (Setaria faberi (SETFA) [5]) | Post-emergence Test SOLNI, percentage damage to the plant (five-point scale) (Solanum nigrum (SOLNI) [6])
